Reference: publication PMC11111955, “Safety and efficacy evaluation of halicin as an effective drug for inhibiting intestinal infections” (Frontiers in Pharmacology, 2024)
In brackets after ≈: the same amount, converted by molar mass. Entries after “also recorded” stand apart in the source; their conditions may differ. Where two headings read alike, the source gives them in different places.

What was measured:
[1] = test system: K. pneumoniae (ATCC 4352); assay: Minimum inhibitory concentration (MIC); assay type: cell-based, Klebsiella pneumoniae
Method: (§1) The test strains were inoculated on the corresponding solid medium and incubated overnight at 37°C. A single colony was picked from the medium and inoculated into Luria Broth (LB), and then incubated overnight at 37°C with shaking at 220 rpm. The bacterial suspension was diluted to 0.5 McFarland turbidity with Mueller Hinton broth (MHB), and then dilute 100 times for later use. Halicin was added to the 96-well plate, and diluted it to concentrations of 128, 64, 32, 16, 8, 4, 2, 1, 0.5, 0.25, 0.125, and 0 μg/mL by gradient. The 96-well plate was incubated at 37°C for 16 h, followed by observing and recording the results. The MIC was determined as the concentration at which there was no visible colony growth was observed.

[2] = test system: P. aeruginosa (ATCC 27853); assay: Minimum inhibitory concentration (MIC); assay type: cell-based, Pseudomonas aeruginosa
Method: as §1

[3] = test system: A. baumannii (ATCC 19606); assay: Minimum inhibitory concentration (MIC); assay type: cell-based, Acinetobacter baumannii
Method: as §1

[4] = test system: S. aureus (ATCC 29213); assay: Minimum inhibitory concentration (MIC); assay type: cell-based, Staphylococcus aureus
Method: as §1

[5] = test system: S. pneumoniae (ATCC 49619); assay: Minimum inhibitory concentration (MIC); assay type: cell-based, Streptococcus pneumoniae
Method: as §1

[6] = test system: clinical isolates of E. coli strains; assay: MIC against clinical isolates; assay type: cell-based, Escherichia coli
[7] = test system: TA100; assay: Ames test; assay type: cell-based, Salmonella typhimurium
Method: (§2) The experiments were performed in triplicate.

[8] = test system: TA97a; assay: Ames test; assay type: cell-based, Salmonella typhimurium
Method: as §2

[9] = test system: TA98; assay: Ames test; assay type: cell-based, Salmonella typhimurium
Method: as §2

[10] = test system: WP2uvApKM101; assay: Ames test; assay type: cell-based, Escherichia coli
Method: as §2

[11] = test system: Clostridium perfringens Type A; assay type: in vivo, BALB/c mice; details: for survival of infected mice: 1 h after C. perfringens challenge
[12] = test system: rats; assay: 90-Day subchronic toxicity assay
[13] = test system: S. aureus (ATCC 29213); assay: Multipassage resistance study (continuous induction); details: after 90 days of continuous exposure to 0.5 × MIC
[14] = test system: E. coli (ATCC 25922); assay: as above; details: after multipassage induction
[15] = test system: bone marrow polychromatic erythrocytes; assay: Micronucleus experiment of mammalian bone marrow cells
[16] = Female mice, High-does (1009.1) mg/kg
[17] = Female mice, Low-does (252.3) mg/kg
[18] = Female mice, Medium-does (504.6) mg/kg
[19] = Male mice, High-does (1009.1) mg/kg
[20] = Male mice, Low-does (252.3) mg/kg
[21] = Male mice, Medium-does (504.6) mg/kg

## Nc1nnc(Sc2ncc([N+](=O)[O-])s2)s1 [halicin]
[1]
  MIC: 8 µg/mL (≈ 30.6 µM)
[2]
  MIC: 64 µg/mL (≈ 245 µM)
[3]
  MIC: 8 µg/mL (≈ 30.6 µM)
[4]
  MIC: 8 µg/mL (≈ 30.6 µM)
[5]
  MIC: 0.5 µg/mL (≈ 1.91 µM)
[6]
  MIC: 8 µg/mL (≈ 30.6 µM)
[6]; clinical isolate S015, Escherichia coli 1505
  MIC: 16 µg/mL (≈ 61.2 µM)
[6]; clinical isolate S016, Escherichia coli 2101
  MIC: 16 µg/mL (≈ 61.2 µM)
[6]; clinical isolate S017, Escherichia coli 1104
  MIC: 16 µg/mL (≈ 61.2 µM)
[6]; clinical isolate S018, Escherichia coli 1103
  MIC: 16 µg/mL (≈ 61.2 µM)
[6]; clinical isolate S019, Escherichia coli 1102
  MIC: 16 µg/mL (≈ 61.2 µM)
[6]; clinical isolate S020, Escherichia coli 1204
  MIC: 16 µg/mL (≈ 61.2 µM)
[6]; clinical isolate S021, Escherichia coli 1508
  MIC: 16 µg/mL (≈ 61.2 µM)
[6]; clinical isolate S022, Escherichia coli 1302
  MIC: 16 µg/mL (≈ 61.2 µM)
[6]; clinical isolate S023, Escherichia coli 1301
  MIC: 16 µg/mL (≈ 61.2 µM)
[6]; clinical isolate S024, Escherichia coli 1213
  MIC: 16 µg/mL (≈ 61.2 µM)
[6]; clinical isolate S025, Escherichia coli 1111
  MIC: 8 µg/mL (≈ 30.6 µM)
[6]; clinical isolate S026, Escherichia coli 1123
  MIC: 8 µg/mL (≈ 30.6 µM)
[6]; clinical isolate S034, Escherichia coli 1115
  MIC: 8 µg/mL (≈ 30.6 µM)
[6]; clinical isolate S035, Escherichia coli 1114
  MIC: 8 µg/mL (≈ 30.6 µM)
[6]; clinical isolate S036, Escherichia coli 1113
  MIC: 8 µg/mL (≈ 30.6 µM)
[6]; clinical isolate S037, Escherichia coli 1110
  MIC: 8 µg/mL (≈ 30.6 µM)
[6]; clinical isolate S038, Escherichia coli 1108
  MIC: 8 µg/mL (≈ 30.6 µM)
[6]; clinical isolate S039, Escherichia coli 1105
  MIC: 8 µg/mL (≈ 30.6 µM)
[6]; clinical isolate S040, Escherichia coli 230202
  MIC: 8 µg/mL (≈ 30.6 µM)
[6]; clinical isolate S041, Escherichia coli 230203
  MIC: 8 µg/mL (≈ 30.6 µM)
[6]; clinical isolate S042, Escherichia coli 230210
  MIC: 8 µg/mL (≈ 30.6 µM)
[6]; clinical isolate S043, Escherichia coli 0807
  MIC: 32 µg/mL (≈ 122 µM)
[6]; clinical isolate S044, Escherichia coli 1122
  MIC: 4 µg/mL (≈ 15.3 µM)
[6]; clinical isolate S045, Escherichia coli 0906
  MIC: 4 µg/mL (≈ 15.3 µM)
[6]; clinical isolate S046, Escherichia coli 0813
  MIC: 4 µg/mL (≈ 15.3 µM)
[6]; clinical isolate S047, Escherichia coli 230209
  MIC: 4 µg/mL (≈ 15.3 µM)
[6]; clinical isolate S048, Escherichia coli 230211
  MIC: 4 µg/mL (≈ 15.3 µM)
[7]; TA100, +S9, 5.6 μg/plate
  Ames test bacterial counts: 171 ± 11.3
[7]; TA100, +S9, 11.2 μg/plate
  Ames test bacterial counts: 152 ± 12.7
[7]; TA100, +S9, 22.5 μg/plate
  Ames test bacterial counts: 0 ± 0
[7]; TA100, +S9, 45 μg/plate
  Ames test bacterial counts: 0 ± 0
[7]; TA100, -S9, 5.6 μg/plate
  Ames test bacterial counts: 121 ± 9.9
[7]; TA100, -S9, 11.2 μg/plate
  Ames test bacterial counts: 0 ± 0
[7]; TA100, -S9, 22.5 μg/plate
  Ames test bacterial counts: 0 ± 0
[7]; TA100, -S9, 45 μg/plate
  Ames test bacterial counts: 0 ± 0
[8]; +S9, 5.6 μg/plate
  Ames test bacterial counts: 145 ± 5.7
[8]; +S9, 11.2 μg/plate
  Ames test bacterial counts: 151 ± 11.3
[8]; +S9, 22.5 μg/plate
  Ames test bacterial counts: 31 ± 8.5
[8]; +S9, 45 μg/plate
  Ames test bacterial counts: 0 ± 0
[8]; -S9, 5.6 μg/plate
  Ames test bacterial counts: 82 ± 14.1
[8]; -S9, 11.2 μg/plate
  Ames test bacterial counts: 115 ± 8.5
[8]; -S9, 22.5 μg/plate
  Ames test bacterial counts: 0 ± 0
[8]; -S9, 45 μg/plate
  Ames test bacterial counts: 0 ± 0
[9]; TA98, +S9, 5.6 μg/plate
  Ames test bacterial counts: 30 ± 12.7
[9]; TA98, +S9, 11.2 μg/plate
  Ames test bacterial counts: 43 ± 8.5
[9]; TA98, +S9, 22.5 μg/plate
  Ames test bacterial counts: 53 ± 7.1
[9]; TA98, +S9, 45 μg/plate
  Ames test bacterial counts: 0 ± 0
[9]; TA98, -S9, 5.6 μg/plate
  Ames test bacterial counts: 27 ± 2.8
[9]; TA98, -S9, 11.2 μg/plate
  Ames test bacterial counts: 61 ± 14.1
[9]; TA98, -S9, 22.5 μg/plate
  Ames test bacterial counts: 55 ± 5.7
[9]; TA98, -S9, 45 μg/plate
  Ames test bacterial counts: 0 ± 0
[10]; WP2uvApKM101, +S9, 5.6 μg/plate
  Ames test bacterial counts: 183 ± 15.6
[10]; WP2uvApKM101, +S9, 11.2 μg/plate
  Ames test bacterial counts: 168 ± 19.8
[10]; WP2uvApKM101, +S9, 22.5 μg/plate
  Ames test bacterial counts: 12 ± 5.7
[10]; WP2uvApKM101, +S9, 45 μg/plate
  Ames test bacterial counts: 0 ± 0
[10]; WP2uvApKM101, -S9, 5.6 μg/plate
  Ames test bacterial counts: 169 ± 15.6
[10]; WP2uvApKM101, -S9, 11.2 μg/plate
  Ames test bacterial counts: 135 ± 22.6
[10]; WP2uvApKM101, -S9, 22.5 μg/plate
  Ames test bacterial counts: 75 ± 8.5
[10]; WP2uvApKM101, -S9, 45 μg/plate
  Ames test bacterial counts: 0 ± 0
[11]; 5 mg/kg halicin
  survival of infected mice: more than 80%
[11]; 10 mg/kg halicin
  survival of infected mice: no deaths occurred; also recorded: All mice in the 10 mg/kg halicin group survived
[11]; dose of 5 mg/kg
  therapeutic effect in infected mice: good therapeutic effects
[11]; intestinal anaerobic bacteria infection in mice
  efficacy compared with 10 mg/kg metronidazole: much more effective
[12]; all dosage groups
  water consumption and mental states: no significant changes
[12]; all halicin treatment groups, 90 days, p > 0.05
  body weight of female rats compared with the control group: no significant difference
[12]; any experimental group (50.5-201.8 mg/kg), 90 days
  mortality: No mortality
[12]; end of the experiment, all treatment groups, p > 0.05
  weight of organs compared with the control group: no significant difference
[12]; from the safety assessment
  maximum safe concentration: 50.5 mg/kg
[12]; high dose 201.8 mg/kg, 201.8 mg/kg
  kidney findings (autopsy, HE sections): slight renal inflammation; also recorded: kidney lesions
[12]; high-dose group (201.8 mg/kg), oral, 90 days, p < 0.05
  body weight of male rats compared with the control group: significantly lower
[12]; high-dose, p < 0.01
  serum ALT and AST levels compared with the control group: significantly reduced
[12]; low-dose group (50.5 mg/kg), p > 0.05
  diet compared with the control group: No significant differences
[12]; rats, oral, 90 days
  dosages with good safety and tolerability: below 50.5 mg/kg
[13]
  MIC of SAR (S. aureus ATCC 29213 resistant strains): 64 µg/mL
[14]
  MIC of ECR (E. coli ATCC 25922 resistant strains): 32 µg/mL
[15]; [16]
  PCE micronucleus (‰): 2.2 ± 0.8 ‰
  PCE/RBC: 0.72 ± 0.08
[15]; [17]
  PCE micronucleus (‰): 1.2 ± 0.4 ‰
  PCE/RBC: 1.09 ± 0.06
[15]; [18]
  PCE micronucleus (‰): 0.8 ± 0.4 ‰
  PCE/RBC: 1.06 ± 0.07
[15]; [19]
  PCE micronucleus (‰): 0.8 ± 0.8 ‰
  PCE/RBC: 0.76 ± 0.03
[15]; [20]
  PCE micronucleus (‰): 0.6 ± 0.5 ‰
  PCE/RBC: 1.07 ± 0.09
[15]; [21]
  PCE micronucleus (‰): 1 ± 0.7 ‰
  PCE/RBC: 1.08 ± 0.11
[15]; high-dose (1009.1 mg/kg), p < 0.01
  micronucleus ratio compared with the negative control group: significant difference
[15]; medium (504.6 mg/kg) and low-dose (252.3 mg/kg), p > 0.05
  micronucleus ratio compared with the negative control group: no significant difference
